# Values quoted from earlier work in paper PMC4282593 (Cancer chemotherapy and pharmacology, 2014).
# Test system: recurrent/refractory NBs
# Settings: ref [23]
smiles,measurement,setting,value
C[C@]12O[C@H](C[C@]1(O)CO)n1c3ccccc3c3c4c(c5c6ccccc6n2c5c31)CNC4=O [lestaurtinib],patients with durable responses,8/16 patients treated at a biologically effective dose,50%
same,side effects,Phase 1 clinical trial in NB patients,"limited to mild, including reversible liver transaminase elevations"
same,"duration of durable responses, on average",patients treated at a biologically effective dose,more than 10 months
